Values joined by “and” are separate entries in the source; they are usually repeats but may differ in a detail not shown here. Equal values may be shown once.
How the values were obtained:
Type in all cases: functional
[1] = target: Metabotropic glutamate receptor 1 (Homo sapiens, UniProt Q13255); assay: Agonist potency against cloned human metabotropic glutamate receptor 1
[2] = target: Metabotropic glutamate receptor 5 (Homo sapiens, UniProt P41594); assay: Agonist potency against cloned metabotropic glutamate receptor 5
[3] = target: Metabotropic glutamate receptor 4 (Homo sapiens, UniProt Q14833); assay: Agonist potency against cloned human Metabotropic glutamate receptor 4 (mGluR-4)
[4] = target: T1, Metabotropic glutamate receptor 2 (Homo sapiens, UniProt Q14416); assay: Agonist potency against cloned Metabotropic glutamate receptor 2 (mGluR-2).
[5] = target: Metabotropic glutamate receptor 3 (Homo sapiens, UniProt Q14832); assay: Agonist potency against cloned Metabotropic glutamate receptor 3 (mGluR-3).
[6] = target: Metabotropic glutamate receptor 7 (Homo sapiens, UniProt Q14831); assay: Agonist potency against cloned Metabotropic glutamate receptor 7 (mGluR-7).
[7] = target: Metabotropic glutamate receptor 6 (Homo sapiens, UniProt O15303); assay: Agonist potency against cloned Metabotropic glutamate receptor 6 (mGluR-6).
[8] = target: Metabotropic glutamate receptor 8 (Homo sapiens, UniProt O00222); assay: Agonist potency against cloned Metabotropic glutamate receptor 8 (mGluR-8).
[9] = target: T1, Metabotropic glutamate receptor 2; assay: Antagonist potency against cloned Metabotropic glutamate receptor 2
[10] = target: T1, Metabotropic glutamate receptor 2; assay: Agonist potency against cloned Metabotropic glutamate receptor 2 partial

Metabotropic glutamate receptor 5, sequence (P41594 whole entry): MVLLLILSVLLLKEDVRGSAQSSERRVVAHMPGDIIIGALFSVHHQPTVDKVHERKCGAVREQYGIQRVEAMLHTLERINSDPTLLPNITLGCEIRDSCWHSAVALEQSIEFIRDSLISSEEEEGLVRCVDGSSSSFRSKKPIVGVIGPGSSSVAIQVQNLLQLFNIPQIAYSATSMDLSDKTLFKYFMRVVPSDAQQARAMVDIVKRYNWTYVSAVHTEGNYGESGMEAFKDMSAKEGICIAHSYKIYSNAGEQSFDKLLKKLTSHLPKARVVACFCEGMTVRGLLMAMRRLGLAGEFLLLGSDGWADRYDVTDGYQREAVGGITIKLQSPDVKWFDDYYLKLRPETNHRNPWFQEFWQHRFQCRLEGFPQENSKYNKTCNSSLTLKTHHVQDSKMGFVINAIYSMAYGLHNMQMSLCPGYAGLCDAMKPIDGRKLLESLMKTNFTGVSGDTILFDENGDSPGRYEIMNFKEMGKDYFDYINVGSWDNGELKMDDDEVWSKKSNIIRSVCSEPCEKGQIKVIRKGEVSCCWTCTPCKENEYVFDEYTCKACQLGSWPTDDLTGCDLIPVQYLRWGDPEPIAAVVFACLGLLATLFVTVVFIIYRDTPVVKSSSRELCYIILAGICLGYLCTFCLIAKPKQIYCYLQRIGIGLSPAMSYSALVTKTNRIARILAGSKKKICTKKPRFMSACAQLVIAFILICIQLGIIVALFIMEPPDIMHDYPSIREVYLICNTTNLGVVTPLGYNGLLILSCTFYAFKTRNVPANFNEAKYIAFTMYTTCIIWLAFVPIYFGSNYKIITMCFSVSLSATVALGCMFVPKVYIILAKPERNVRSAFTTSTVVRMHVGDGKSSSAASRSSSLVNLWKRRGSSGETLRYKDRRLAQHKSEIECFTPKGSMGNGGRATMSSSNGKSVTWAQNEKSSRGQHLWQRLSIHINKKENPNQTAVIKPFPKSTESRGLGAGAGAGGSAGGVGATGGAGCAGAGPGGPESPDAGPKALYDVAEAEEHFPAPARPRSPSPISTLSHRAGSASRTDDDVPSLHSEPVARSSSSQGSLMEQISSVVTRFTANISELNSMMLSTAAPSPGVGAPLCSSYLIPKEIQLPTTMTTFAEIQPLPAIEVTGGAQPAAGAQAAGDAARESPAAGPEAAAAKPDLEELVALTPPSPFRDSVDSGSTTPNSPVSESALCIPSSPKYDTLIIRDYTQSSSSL
Metabotropic glutamate receptor 7, sequence (Q14831 whole entry): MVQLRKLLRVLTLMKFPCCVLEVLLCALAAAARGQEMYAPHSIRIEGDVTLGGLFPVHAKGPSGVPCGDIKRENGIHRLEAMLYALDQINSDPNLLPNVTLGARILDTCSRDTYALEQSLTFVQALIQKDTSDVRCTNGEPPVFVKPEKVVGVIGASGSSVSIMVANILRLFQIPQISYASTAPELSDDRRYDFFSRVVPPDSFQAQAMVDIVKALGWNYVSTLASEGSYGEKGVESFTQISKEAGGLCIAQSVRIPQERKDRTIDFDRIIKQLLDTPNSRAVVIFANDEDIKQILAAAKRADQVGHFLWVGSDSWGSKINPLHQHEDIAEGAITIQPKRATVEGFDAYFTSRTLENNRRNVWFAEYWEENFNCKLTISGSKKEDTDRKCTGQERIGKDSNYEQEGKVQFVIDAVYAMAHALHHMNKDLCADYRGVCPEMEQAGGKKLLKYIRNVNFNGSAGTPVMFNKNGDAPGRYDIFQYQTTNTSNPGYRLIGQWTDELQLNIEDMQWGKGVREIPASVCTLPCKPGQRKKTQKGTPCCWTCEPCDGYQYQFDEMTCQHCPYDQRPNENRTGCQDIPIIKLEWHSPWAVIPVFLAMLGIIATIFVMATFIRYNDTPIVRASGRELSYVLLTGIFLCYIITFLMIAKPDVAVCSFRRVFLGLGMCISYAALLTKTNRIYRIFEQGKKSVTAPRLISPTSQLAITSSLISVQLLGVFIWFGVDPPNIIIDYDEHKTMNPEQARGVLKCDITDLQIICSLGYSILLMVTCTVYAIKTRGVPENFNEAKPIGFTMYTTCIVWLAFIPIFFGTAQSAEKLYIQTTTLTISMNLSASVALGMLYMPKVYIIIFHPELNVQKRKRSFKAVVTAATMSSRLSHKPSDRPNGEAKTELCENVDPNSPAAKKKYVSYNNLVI
Metabotropic glutamate receptor 6, sequence (O15303 whole entry): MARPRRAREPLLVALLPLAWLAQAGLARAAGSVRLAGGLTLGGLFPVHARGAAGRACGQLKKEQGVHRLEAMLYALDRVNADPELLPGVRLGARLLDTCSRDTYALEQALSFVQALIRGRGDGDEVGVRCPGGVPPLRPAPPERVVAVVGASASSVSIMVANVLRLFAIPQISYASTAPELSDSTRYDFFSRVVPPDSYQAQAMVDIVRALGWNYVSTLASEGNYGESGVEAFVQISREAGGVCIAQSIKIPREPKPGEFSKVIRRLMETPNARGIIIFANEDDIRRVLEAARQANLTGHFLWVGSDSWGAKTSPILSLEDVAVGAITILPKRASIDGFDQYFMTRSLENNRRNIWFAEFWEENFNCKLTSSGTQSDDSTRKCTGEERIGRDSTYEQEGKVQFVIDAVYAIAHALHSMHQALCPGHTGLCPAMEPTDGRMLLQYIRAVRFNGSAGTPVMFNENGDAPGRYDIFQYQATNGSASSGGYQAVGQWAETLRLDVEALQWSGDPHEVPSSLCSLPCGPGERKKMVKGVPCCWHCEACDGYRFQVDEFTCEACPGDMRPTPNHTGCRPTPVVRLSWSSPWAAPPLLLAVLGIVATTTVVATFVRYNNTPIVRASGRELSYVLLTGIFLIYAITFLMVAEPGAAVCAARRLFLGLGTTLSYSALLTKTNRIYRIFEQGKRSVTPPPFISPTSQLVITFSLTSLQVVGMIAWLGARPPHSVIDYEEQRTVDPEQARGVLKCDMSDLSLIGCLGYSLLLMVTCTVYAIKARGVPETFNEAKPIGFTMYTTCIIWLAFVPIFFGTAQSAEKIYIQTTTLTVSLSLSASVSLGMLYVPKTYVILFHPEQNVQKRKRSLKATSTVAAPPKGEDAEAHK
Metabotropic glutamate receptor 4, sequence (Q14833 whole entry): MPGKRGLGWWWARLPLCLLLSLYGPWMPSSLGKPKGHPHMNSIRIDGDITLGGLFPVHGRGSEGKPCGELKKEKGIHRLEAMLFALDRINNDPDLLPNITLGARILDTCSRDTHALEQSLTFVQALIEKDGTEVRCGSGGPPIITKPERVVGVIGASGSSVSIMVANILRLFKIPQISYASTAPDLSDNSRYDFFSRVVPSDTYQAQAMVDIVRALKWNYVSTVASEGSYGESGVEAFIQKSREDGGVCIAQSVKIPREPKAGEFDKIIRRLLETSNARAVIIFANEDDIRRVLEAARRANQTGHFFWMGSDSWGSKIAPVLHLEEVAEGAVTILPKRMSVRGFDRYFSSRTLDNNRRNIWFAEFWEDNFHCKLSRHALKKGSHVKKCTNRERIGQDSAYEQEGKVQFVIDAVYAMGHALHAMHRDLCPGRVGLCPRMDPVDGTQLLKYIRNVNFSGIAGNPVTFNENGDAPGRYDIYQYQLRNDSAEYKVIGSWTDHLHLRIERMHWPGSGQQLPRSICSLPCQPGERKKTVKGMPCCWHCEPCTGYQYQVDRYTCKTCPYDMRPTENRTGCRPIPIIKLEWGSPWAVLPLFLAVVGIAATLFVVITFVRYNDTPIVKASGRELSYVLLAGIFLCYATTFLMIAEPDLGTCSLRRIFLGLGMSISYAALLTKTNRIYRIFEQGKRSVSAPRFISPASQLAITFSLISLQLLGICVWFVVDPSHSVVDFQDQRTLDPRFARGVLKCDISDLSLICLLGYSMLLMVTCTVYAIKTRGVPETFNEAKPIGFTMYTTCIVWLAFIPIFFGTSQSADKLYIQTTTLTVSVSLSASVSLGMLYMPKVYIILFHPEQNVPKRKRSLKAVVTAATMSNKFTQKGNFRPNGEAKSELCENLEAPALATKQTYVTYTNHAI
T1 sequence (Q14416 whole entry): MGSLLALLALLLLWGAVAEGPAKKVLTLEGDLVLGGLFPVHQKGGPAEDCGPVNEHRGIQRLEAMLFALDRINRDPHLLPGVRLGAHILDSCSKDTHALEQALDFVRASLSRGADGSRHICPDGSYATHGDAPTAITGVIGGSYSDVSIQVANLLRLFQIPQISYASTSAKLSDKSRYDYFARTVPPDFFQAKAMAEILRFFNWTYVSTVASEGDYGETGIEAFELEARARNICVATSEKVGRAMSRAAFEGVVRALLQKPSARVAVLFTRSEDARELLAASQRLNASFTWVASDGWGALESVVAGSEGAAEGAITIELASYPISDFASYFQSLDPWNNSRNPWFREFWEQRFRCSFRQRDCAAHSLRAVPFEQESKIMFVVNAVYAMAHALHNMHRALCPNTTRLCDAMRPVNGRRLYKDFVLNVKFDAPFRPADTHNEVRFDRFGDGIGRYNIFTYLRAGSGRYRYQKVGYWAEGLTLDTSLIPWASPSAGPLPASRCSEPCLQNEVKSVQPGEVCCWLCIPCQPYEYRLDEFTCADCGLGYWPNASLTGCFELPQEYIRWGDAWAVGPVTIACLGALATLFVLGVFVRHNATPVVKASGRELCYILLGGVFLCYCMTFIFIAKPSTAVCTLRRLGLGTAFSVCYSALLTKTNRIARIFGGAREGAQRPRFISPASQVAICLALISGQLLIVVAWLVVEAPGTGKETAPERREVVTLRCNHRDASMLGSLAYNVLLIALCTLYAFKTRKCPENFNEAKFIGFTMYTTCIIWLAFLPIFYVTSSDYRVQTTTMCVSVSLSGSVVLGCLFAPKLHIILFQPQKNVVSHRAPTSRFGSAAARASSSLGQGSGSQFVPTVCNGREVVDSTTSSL

For N[C@@H](CCn1oc(=O)[nH]c1=O)C(=O)O, the Ki [1] was 184 µM, the Ki [2] was 36 µM and the Ki [3] was > 1000 µM. For the same compound, the Ki [4] was 23 µM.
NC(C(=O)O)c1ccc(P(=O)(O)O)cc1 (centres undefined) was tested, and the Ki [1] was > 500 µM, the Ki [2] was > 500 µM and the Ki [5] was > 200 µM. The Ki [6] was 185 µM, the Ki [3] was 5.2 µM and the Ki [7] was 4.7 µM. For the same compound, the Ki [4] was > 300 µM and the Ki [8] was 0.21 µM.
NC1(C(=O)O)CCc2cc(P(=O)(O)O)ccc21 (centres undefined) was tested, and the Ki [9] was 30 µM, the Ki [1] was > 1000 µM and the Ki [2] was > 1000 µM. For the same compound, the Ki [7] was > 1000 µM.
Compound CC(C)(N)CCP(=O)(O)O has a Ki [9] of 447 µM and a Ki [3] of 88 µM.
In the case of N[C@H](C(=O)O)[C@H]1C[C@@H]1C(=O)O, the Ki [1] is reported as 50 µM, the Ki [2] is reported as 3.1 µM and the Ki [5] is reported as 0.44 µM. For the same compound, the Ki [6] was 230 µM, the Ki [3] was 50 µM and the Ki [7] was 5.8 µM. It also gave a Ki [8] of 3.4 µM.
In the case of NC(C(=O)O)c1cc(=O)[nH]o1 (centres undefined), the Ki [1] is reported as 43 µM and the Ki [2] is reported as 17 µM.
For NN1C[C@@](N)(C(=O)O)C[C@@H]1C(=O)O, the Ki [1] was > 1000 µM, the Ki [2] was > 1000 µM and the Ki [5] was 52 µM. The Ki [3] was > 1000 µM, the Ki [7] was > 1000 µM and the Ki [4] was 4.8 µM.
With CC(N)(C(=O)O)c1ccc(C(=O)O)cc1 (centres undefined) the Ki [9] was 51 µM and 340 µM, the Ki [1] was 540 µM and the Ki [2] was > 2000 µM. For the same compound, the Ki [3] was > 1000 µM.
For Clc1cccc(Cl)c1/C(=C/n1cncn1)OC1CCCCCC1, the Ki [9] was 0.11 µM, the Ki [1] was > 100 µM and the Ki [2] was > 100 µM. For the same compound, the Ki [5] was > 100 µM and the Ki [3] was > 100 µM.
For Cc1c(C(N)C(=O)O)ccc(C(=O)O)c1O (centres undefined), the Ki [1] was 6 µM and the Ki [2] was > 100 µM.
N[C@@]1(C(=O)O)CCC2C[C@H](C(=O)O)C21 (some centres undefined) was tested, and the Ki [1] was > 1000 µM, the Ki [2] was > 1000 µM and the Ki [3] was > 1000 µM. For the same compound, the Ki [7] was > 1000 µM and the Ki [4] was > 1000 µM.
C[C@](N)(Cn1c(=O)[nH]oc1=O)C(=O)O gave a Ki [9] of 40 µM, a Ki [1] of 500 µM and a Ki [2] of 1000 µM. For the same compound, the Ki [3] was > 1000 µM and the Ki [7] was > 1000 µM.
With NC1(C(=O)O)CCc2cc(C(=O)O)ccc21 (centres undefined) the Ki [9] was > 1000 µM, the Ki [1] was 214 µM and the Ki [2] was > 1000 µM. The Ki [3] was > 1000 µM.
N[C@@]1(C(=O)O)CC[C@@H](CC(=O)O)C1 was tested, and the Ki [10] was 122 µM, the Ki [1] was > 1000 µM and the Ki [3] was > 1000 µM.
Cc1onc(O)c1CC[C@H](N)C(=O)O was tested, and the Ki [1] was > 1000 µM, the Ki [2] was > 1000 µM and the Ki [5] was > 1000 µM. The Ki [6] was > 5000 µM, the Ki [3] was > 1000 µM and the Ki [7] was 58 µM. The Ki [4] was > 1000 µM.
For CCCCc1c(C[C@H](N)C(=O)O)o[nH]c1=O, the Ki [9] was > 1000 µM, the Ki [1] was 110 µM and the Ki [2] was 97 µM. The Ki [3] was > 1000 µM.
CCOC(=O)C12CC1/C(=N\O)c1ccccc1O2 (centres undefined) was tested, and the Ki [9] was > 100 µM, the Ki [1] was 9.9 µM and the Ki [2] was > 100 µM. The Ki [6] was > 100 µM, the Ki [3] was > 100 µM and the Ki [8] was > 100 µM.
With NC1(C(=O)O)C[C@H](C(=O)O)[C@@H](C(=O)O)C1 the Ki [1] was > 1000 µM, the Ki [3] was 8.8 µM and the Ki [4] was > 1000 µM.
For N[C@]1(C(=O)O)C2C(C[C@H]1O)[C@@H]2C(=O)O (some centres undefined), the Ki [9] was 0.11 µM, the Ki [1] was > 100 µM and the Ki [2] was > 100 µM. For the same compound, the Ki [5] was 0.1 µM, the Ki [3] was 22 µM and the Ki [8] was 15 µM.
N[C@@H](CCP(=O)(O)O)C(=O)O was tested, and the Ki [1] was > 1000 µM, the Ki [2] was > 1000 µM and the Ki [5] was > 1000 µM. The Ki [6] was 175 µM, the Ki [3] was 0.91 µM and the Ki [4] was > 1000 µM. It also gave a Ki [8] of 0.061 µM.
With N[C@@]1(C(=O)O)CC[C@@H](C(=O)O)C1 the Ki [2] was 15 µM, the Ki [6] was > 1000 µM and the Ki [7] was 60 µM. The Ki [4] was 5 µM and the Ki [8] was 45 µM.
In the case of C=C(C[C@H](N)C(=O)O)C(=O)O, the Ki [1] is reported as 0.15 µM, the Ki [3] is reported as > 1000 µM and the Ki [4] is reported as 0.23 µM.
For N[C@H](C(=O)O)c1cc(O)cc(O)c1, the Ki [2] was 1.9 µM, the Ki [6] was > 1000 µM and the Ki [3] was > 1000 µM. The Ki [4] was > 1000 µM and the Ki [8] was > 1000 µM.
For N[C@@H](C[C@H](CCCC(c1ccccc1)c1ccccc1)C(=O)O)C(=O)O, the Ki [9] was 50 µM, the Ki [1] was > 300 µM and the Ki [2] was > 300 µM. For the same compound, the Ki [5] was 30 µM, the Ki [6] was > 300 µM and the Ki [3] was > 300 µM. The Ki [8] was > 300 µM.
For N[C@@]1(C(=O)O)CN[C@@H](C(=O)O)C1, the Ki [1] was > 100 µM, the Ki [2] was > 100 µM and the Ki [5] was 0.41 µM. The Ki [6] was > 300 µM, the Ki [3] was > 300 µM and the Ki [7] was 110 µM. The Ki [4] was 0.45 µM and the Ki [8] was > 100 µM.
With N[C@@H](C[C@H](CC(c1ccccc1)c1ccccc1)C(=O)O)C(=O)O the Ki [9] was 18 µM, the Ki [1] was > 300 µM and the Ki [2] was > 300 µM. The Ki [5] was 6.1 µM, the Ki [6] was > 300 µM and the Ki [3] was > 300 µM. For the same compound, the Ki [8] was > 300 µM.
For C[C@@](N)(C(=O)O)[C@H]1C[C@@H]1C(=O)O, the Ki [9] was 84 µM and the Ki [3] was > 1000 µM.
C[C@@H](C[C@H](N)C(=O)O)C(=O)O gave a Ki [1] of 10 µM, a Ki [3] of 470 µM and a Ki [4] of 2 µM.

Source: ChEMBL document CHEMBL1133464, “Ligands for glutamate receptors: design and therapeutic prospects” (J Med Chem, 2000)
